Test: gradient 5% acetonitrile 3 min, to 50% in 2 min, to 85% in 15 min, held 3 min, 100 µL/min
Conditions: column: Zorbax Extend-C18 2.1 x 50 mm; eluents: water / acetonitrile, 0.1% formic acid
How it was run: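 A Zorbax Extend-C18 column (2.1 × 50 mm, 1.8 μm) run at 100 μL/min with water and acetonitrile, both containing 0.1% formic acid, separated mixtures of ~100 pure standards. The HPLC was coupled to a quadrupole time-of-flight mass spectrometer operated in positive and negative ionization mode, with dead and dwell volumes of 40 μL and 900 μL. Each retention time was taken from a computationally picked adduct peak that was then manually inspected.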
For `CCc1ccc(C2=C(C)C(N3CCC(C(=O)NCCCN4CCCC4)CC3)=NS2(=O)=O)cc1`, the RP-LC retention time was 604 s.
With `O=C(CSc1ccc(F)cc1)NCC1(CO)CC1` the RP-LC retention time was 629 s.
`Cc1ccc(-n2ncc3c(=O)n(Cc4nc(-c5ccc(OC(F)(F)F)cc5)no4)cnc32)cc1` gave an RP-LC retention time of 1200 s.
In the case of `CN1C(=O)CC[C@]2(C(=O)NCc3ccc(F)c(Cl)c3)CCCC[C@@H]12`, the RP-LC retention time is reported as 718 s.
Molecule `Cc1nn(C(=O)C2CC2)c(C)c1Sc1ccccc1[N+](=O)[O-]` has an RP-LC retention time of 1110 s.
Molecule `COc1ccc(Cl)cc1NC(=O)CSc1ccc(NC(=O)c2ccco2)nn1` has an RP-LC retention time of 851 s.
`COC[C@@H]1CN(Cc2cc(Cl)ccc2F)C[C@H]1c1nc(C)no1` showed an RP-LC retention time of 639 s.
`COc1ccc(C(=O)Nc2ccc3c(c2)Sc2ncccc2C(=O)N3C(C)C)cc1F` gave an RP-LC retention time of 894 s.
`CC(=O)c1ccc(NC(=O)c2nc3nc(C)cc(C(F)F)n3n2)cc1` showed an RP-LC retention time of 722 s.
Work on `CCN(CC)c1ccc(C(=O)N2CCC(c3cc(N)on3)CC2)cc1` yielded an RP-LC retention time of 605 s.
`COc1ccc(NC(=O)Cn2nc(N3CCCC(C)C3)c3ccccc3c2=O)cc1OC` (centres undefined) gave an RP-LC retention time of 997 s.
Work on `CCc1nn2c(CNC(=O)c3ccccc3)c(-c3ccccc3)nc2s1` yielded an RP-LC retention time of 870 s.
Molecule `CC1CCc2c(sc3nc(CCC(=O)NCCc4c[nH]c5ccccc45)[nH]c(=O)c23)C1` (centres undefined) has an RP-LC retention time of 898 s.
For `O=C(NCc1ccccc1)C1CCCN(c2nc3ccsc3c(=O)n2Cc2ccc(F)cc2)C1` (centres undefined), the RP-LC retention time was 943 s.
`O=C(Nc1ccccc1)C1CC(=O)N(c2ccc3c(c2)CCN3C(=O)C2CC2)C1` (centres undefined) showed an RP-LC retention time of 743 s.
Work on `COc1ccc(OC)c(NC(=O)CCc2c(C)nn(-c3cc(N4CCCC4)ncn3)c2C)c1` yielded an RP-LC retention time of 827 s.
In the case of `CCCCN(C)C(=O)Cn1c(CN(C)C(=O)c2ccco2)nc2ccccc21`, the RP-LC retention time is reported as 655 s.
`Cc1ccc(-c2nnc(Cc3nc(-c4ccccc4C)no3)o2)cc1` gave an RP-LC retention time of 1100 s.
For `CCC1Oc2ccc(S(=O)(=O)N3CCC(C(=O)Nc4cc(C)ccc4OC)CC3)cc2NC1=O` (centres undefined), the RP-LC retention time was 936 s.
In the case of `Cc1ccc(NC(=O)N2CCC(n3cnc4ccccc4c3=O)CC2)c(C)c1`, the RP-LC retention time is reported as 751 s.
In the case of `O=C(c1ccoc1)N1CCC(c2nc(-c3ccccc3)no2)C1` (centres undefined), the RP-LC retention time is reported as 773 s.
`CN1C(=O)c2cccnc2Sc2cc(C(=O)NCc3ccc(F)cc3)ccc21` gave an RP-LC retention time of 765 s.
In the case of `Cc1cccc(C(=O)N2CC(C)C(=O)Nc3ccccc32)c1` (centres undefined), the RP-LC retention time is reported as 688 s.
`COCCCNC(=O)Nc1ccc2c(c1)CCN2S(=O)(=O)c1ccccc1` showed an RP-LC retention time of 762 s.
With `O=c1c2nc(-c3ccc(Br)cc3)cn2ccn1-c1ccc(F)c(F)c1` the RP-LC retention time was 924 s.
In the case of `COc1cc(-c2noc(Cc3nnc(-c4ccc(F)cc4)o3)n2)cc(OC)c1OC`, the RP-LC retention time is reported as 916 s.
For `Cc1ccc(C2CN(S(=O)(=O)c3ccccc3)CCN2C)cc1` (centres undefined), the RP-LC retention time was 603 s.
`CN(C)[C@@H]1CN(Cc2cccc(OC(F)(F)F)c2)CC[C@@H]1CO` gave an RP-LC retention time of 585 s.
Work on `CC(C)CCNC(=O)N(C)Cc1nc2cc(C(=O)NC(C)C)ccc2n1C` yielded an RP-LC retention time of 626 s.
`CCOC(=O)c1cc(C2CC2)nc2c1c(=O)n(Cc1ccc(OC)cc1)c(=O)n2C` gave an RP-LC retention time of 1170 s.
In the case of `CCN1c2ccc(Cl)cc2C(=O)NC12CCN(C(=O)Nc1cccc(OC)c1)CC2`, the RP-LC retention time is reported as 852 s.
`Cc1cccc(Nc2ccc(N3CCN(C(=O)Cc4c[nH]c5ccccc45)CC3)nn2)n1` showed an RP-LC retention time of 574 s.
Molecule `CCCn1cc(CCNS(=O)(=O)c2ccc3c(c2)CCC3)c2cccnc21` has an RP-LC retention time of 938 s.
For `O=C(Cc1ccsc1)N1CCC(c2nncn2-c2ccccc2)CC1`, the RP-LC retention time was 689 s.
With `COCCOC1CN(C2CCN(Cc3ccccc3C#N)CC2)C12CCCCC2` (centres undefined) the RP-LC retention time was 572 s.
Work on `CCCc1noc(-c2ccc(-n3ncc(C(=O)N4CCC(C)CC4)c3C)nc2)n1` yielded an RP-LC retention time of 1130 s.
`CCc1nnc(-c2cc(NC(=O)Cc3c[nH]c4ccccc34)c(C)s2)o1` gave an RP-LC retention time of 720 s.
In the case of `COc1ccc(Cl)cc1S(=O)(=O)NCC1CCN(c2ncccn2)CC1`, the RP-LC retention time is reported as 772 s.
In the case of `O=C(NC1CCN(Cc2ccccc2)CC1)c1ccc2nc3ccc(Cl)cc3c(=O)n2c1`, the RP-LC retention time is reported as 665 s.
In the case of `COc1ccc(-c2nn3c(CSc4ccccc4)nnc3s2)cc1OC`, the RP-LC retention time is reported as 882 s.
Work on `COc1ccc(OC)c(NC(=O)c2nc(N(C)C)c3c(C)cc(C)nc3n2)c1` yielded an RP-LC retention time of 676 s.
`COc1ccc(-c2noc(Cn3nc(-c4ccc(C)cc4)ccc3=O)n2)cc1OC` showed an RP-LC retention time of 962 s.
Molecule `O=C(Cc1ccc(Cl)cc1)Nc1cnc(-c2ccccc2)nc1` has an RP-LC retention time of 1000 s.
With `COCC(=O)NC1CCC12CCN(C(=O)c1ccoc1)CC2` (centres undefined) the RP-LC retention time was 643 s.
In the case of `COc1ccc(Cl)cc1NC(=O)C1(c2cccs2)CCCC1`, the RP-LC retention time is reported as 1280 s.
`Cc1ccc(Cn2nccc2NC(=O)c2cc(=O)c3ccccc3o2)cc1` showed an RP-LC retention time of 816 s.
`Brc1ccc2nc(-c3ccccc3)c(Nc3ccc4c(c3)OCO4)n2c1` showed an RP-LC retention time of 748 s.
`Cn1nnc2cc(-c3noc(C4CC(=O)N(c5ccccc5)C4)n3)ccc21` (centres undefined) showed an RP-LC retention time of 788 s.
`O=C(Cn1nc2c(SC3CCCCC3)nccn2c1=O)NC1CCCC1` gave an RP-LC retention time of 939 s.
Molecule `COc1ccc(Br)cc1CNC(=O)c1sc2ncccc2c1-n1cccc1` has an RP-LC retention time of 1130 s.
`Cc1noc2nc(C)n(CC(=O)NCC(C)c3ccccc3)c(=O)c12` (centres undefined) gave an RP-LC retention time of 782 s.
For `Cc1onc(C(=O)N2CCc3c(c(-c4nncn4CC4CC4)nn3C)C2)c1Cn1cc(Cl)cn1`, the RP-LC retention time was 735 s.
`COCCCNC(=O)C1CCCN(c2ccc(Sc3ccc(Br)cc3)nn2)C1` (centres undefined) showed an RP-LC retention time of 777 s.
`CCN(CC)S(=O)(=O)c1ccc2c(c1)N(CC(=O)NCC1COCCO1)C(=O)C1CCCCN21` (centres undefined) gave an RP-LC retention time of 769 s.
`COc1ccc(-c2ncc3c(n2)CCN(C(=O)c2c(F)cccc2Cl)C3)cc1` showed an RP-LC retention time of 966 s.
With `CCOC(=O)c1[nH]c(C)c(C(=O)C(C)N(Cc2ccc(F)cc2)C(=O)C(C)C)c1C` (centres undefined) the RP-LC retention time was 950 s.
In the case of `COc1ccc(F)c(F)c1C(=O)c1cnc(NC2CCN(S(C)(=O)=O)CC2)nc1N`, the RP-LC retention time is reported as 784 s.
`Cn1c(=O)c2ccn(CC(=O)N3CCN(c4ccc(Cl)cc4)CC3)c2n(C)c1=O` gave an RP-LC retention time of 752 s.
With `Nc1nnc(CS(=O)(=O)c2ccccc2)o1` the RP-LC retention time was 568 s.
`Fc1cccc(-c2noc(CSc3nccn3-c3ccccc3)n2)c1` gave an RP-LC retention time of 916 s.
With `O=S(=O)(c1ccc(Cl)s1)N1CC(c2nc(-c3ncccn3)no2)C1` the RP-LC retention time was 725 s.
With `Cc1oc(-c2ccc(C(=O)NCCc3ccco3)cc2)nc1CN1CCc2ccccc21` the RP-LC retention time was 1050 s.
`NC(=O)c1cc(-c2cccc(Cl)c2)n[nH]1` gave an RP-LC retention time of 679 s.
With `Cc1cc(-c2ccc(S(=O)(=O)N3CCC(C(=O)NC4CCCC4)CC3)o2)n[nH]1` the RP-LC retention time was 737 s.
For `Cc1nc(N2CCN(c3ncccn3)CC2)nc2c1C(=O)CC(c1ccccc1O)C2` (centres undefined), the RP-LC retention time was 969 s.
With `O=C(CCCn1c(=O)c2cccn2c2ccc(F)cc21)N1CCN(c2ccccn2)CC1` the RP-LC retention time was 635 s.
With `CN1C(=O)c2cc(C(=O)NCCN3CCCCC3)nn2CC1(C)C(=O)NCc1ccccc1` (centres undefined) the RP-LC retention time was 597 s.
In the case of `Cc1nnc(SCCC(=O)Nc2ccc(F)cc2)s1`, the RP-LC retention time is reported as 692 s.
`O=C1CCN(C(=O)c2ccsc2)CCCCCCN1` gave an RP-LC retention time of 652 s.
Work on `CC(C)N1C(=O)c2cccnc2Sc2cc(NC(=O)C3CCCO3)ccc21` (centres undefined) yielded an RP-LC retention time of 729 s.
For `Cc1cc(-c2nnc(C3CC3)o2)c(C)n1CC(=O)NCc1ccc(F)cc1`, the RP-LC retention time was 784 s.
With `COc1ccc(CN2CCN(C(=O)C3=Cc4ccccc4OC3)CC2)c(OC)c1OC` the RP-LC retention time was 679 s.
`COc1ccc(-c2nnc3n2N=C(c2ccc([N+](=O)[O-])cc2)CS3)cc1OC` showed an RP-LC retention time of 723 s.
Molecule `Cc1cc(C)c(S(=O)(=O)NCCn2c(C)cnc2C2CCC2)cc1C` has an RP-LC retention time of 696 s.
`CCc1noc(NC(C)=O)c1-c1ccc(OC)c(S(=O)(=O)Nc2ccc(C(C)C)cc2)c1` showed an RP-LC retention time of 891 s.
Molecule `CCOC(=O)C(C)NC(=O)N1CCc2cc(-c3ccc(C(=O)N4CCOCC4)cc3)ccc21` (centres undefined) has an RP-LC retention time of 751 s.
`Cc1nnc(C2CCCCCN2S(=O)(=O)c2ccccc2F)o1` (centres undefined) showed an RP-LC retention time of 816 s.
`CCc1c(C2CCN(C(=O)c3ccc(OC)nc3)CC2)noc1N` gave an RP-LC retention time of 663 s.
Work on `O=C(NCCC1=CCCCC1)C1CCCN(C(=O)c2cc(-c3ccccn3)n[nH]2)C1` (centres undefined) yielded an RP-LC retention time of 723 s.
For `CCOc1ccc(-c2noc(Cn3ccnc3)n2)cc1`, the RP-LC retention time was 635 s.
`CN1C(=O)c2cccn2CC1C(=O)Nc1ccccc1` (centres undefined) gave an RP-LC retention time of 681 s.
For `O=C(CC1CCCC1)N1[C@H]2CC[C@@H]1c1cnc(-c3ccc(F)cc3)nc1C2`, the RP-LC retention time was 1060 s.
For `Cc1ccc(-c2csc(NC(=O)CN3CCN(Cc4ccc5c(c4)OCO5)CC3)n2)cc1`, the RP-LC retention time was 737 s.
With `Cc1cc(-c2ccc(S(=O)(=O)N3CCC(C(=O)NCc4ccccc4C)CC3)o2)n[nH]1` the RP-LC retention time was 816 s.
In the case of `CCn1ccc(NC(=O)c2ccccc2C)n1`, the RP-LC retention time is reported as 720 s.
Molecule `Cn1cc(C2=CCN(C(=O)NCc3cccc(F)c3)CC2)c2cccnc21` has an RP-LC retention time of 791 s.
Work on `O=c1ccc(-c2ccc3c(c2)OCO3)nn1CCc1nc(-c2ccc(F)c(Br)c2)no1` yielded an RP-LC retention time of 1030 s.
Molecule `O=C(Cn1cnc2c(sc3nc(-c4ccccc4)ccc32)c1=O)Nc1ccc(Br)cc1` has an RP-LC retention time of 1120 s.
For `CS(=O)(=O)N1CCC(C(=O)Nc2nnc(-c3ccc4c(c3)OCCO4)o2)CC1`, the RP-LC retention time was 646 s.

Source: the METLIN SMRT retention time set (Domingo-Almenara et al. 2019)
